Assay results: patent publication US7662814B2, “4-aminothieno[2,3-d]pyrimidine-6-carbonitrile derivatives as PDE7 inhibitors” (Laboratorios Almirall, S.A., priority 2003, dated 2010)

Key:
[1] = system: PDE7; assay: PDE7 Assay Procedure ([3H]-cAMP SPA); type: biochemical; details: PDE7 inhibition, 15 nM 3',5'[3H]-cAMP, 1 hour at room temperature
Experimental: All compounds are resuspended in DMSO at a stock concentration of 10 mM. […] All dilutions are performed in 96 well plates.
For each reaction, 10 microliters of the diluted compounds are poured into “low binding” assay plates. 80 microliters of a reaction mixture containing 50 mM Tris pH 7.5, 8.3 mM MgCl2, 1.7 mM EGTA, and 15 nM 3′,5′[3H]-cAMP (around 150000 dpm) are added to each well. The reaction is initiated by adding 10 microliters of a solution containing PDE7 to the reaction mixture. The plate is then incubated under stirring for 1 hour at room temperature. After incubation the reaction is stopped with 50 microlitres (0.89 mg) of PDE SPA beads (Amersham Pharmacia Biotech RPNQ0150), and the resulting mixture is allowed to settle for 20 minutes before counting in a microtitre plate counter.

IC50 [1]: < 1000 nM | melting point: 194 to 196 °C
Compound: COc1ccc(-c2nc(N3CCOCC3)c3c(C)c(C#N)sc3n2)cc1OC [Example 31, 2-(3,4-Dimethoxyphenyl)-5-methyl-4-morpholin-4-ylthieno[2,3-d]pyrimidine-6-carbonitrile]
